The values that follow are results of earlier work, collected in PubChem BioAssay AID1259409 (Chemical Carcinogenesis Research Information System (CCRIS), 2018).

Values joined by “and” are separate entries in the source; they are usually repeats but may differ in a detail not shown here. Equal values may be shown once.

For this data set, the system named is rodent chemically induced tumor inhibition, incidence and multiplicity. The data set can be described thus: CCRIS tumor inhibitor studies. The conditions noted are these: Route [Inhibitor]: ORAL.

Take `CSCCC(N)C(=O)O` (configuration not stated): the “tumour outcome (control, treated, inhibition, significance)” value runs as follows: (Carcinogen: 3'-METHYL-4-DIMETHYLAMINOAZOBENZENE, 55-80-1, Dose [Inhibitor]: 0.72% IN DIET DAILY FOR 4 WK STARTING AFTER COMPLETION OF THE FIRST 4 WK OF CARCINOGEN TREATMENT (STUDY DURATION: 20 WK), Species: RAT, Target Tissue: Type of Lesion: LIVER: TUMOR, Dose [Carcinogen]: 0.064% IN DIET DAILY FOR 8 WK, 4 WK BEFORE AND ANOTHER 4 WK AFTER AGENT TREATMENT, Promoter: NONE USED) 7/15 (47%), 8/15 (53%), -13%, not calculated and 7/9 (78%), 8/12 (67%), 14%, not calculated; (Carcinogen: 4-DIMETHYLAMINOAZOBENZENE, 60-11-7, Dose [Inhibitor]: 0.5% OF DIET DAILY STARTING SIMULTANEOUSLY WITH CARCINOGEN TREATMENT AND CONTINUING THROUGH END OF STUDY (STUDY DURATION, Species: RAT, Strain/Sex: OSBORNE-MENDEL/MALE, Target Tissue: Type of Lesion: LIVER: MALIGNANT TUMOR, Dose [Carcinogen]: 0.06% OF DIET DAILY, Promoter: NONE USED) 48/80 (60%), 18/20 (90%), -50%, not calculated; (Carcinogen: 7,12-DIMETHYLBENZ[A]ANTHRACENE, 57-97-6, Dose [Inhibitor]: 0.5% DIET FOR 1 YR STARTING 5 D PRIOR TO CARCINOGEN TREATMENT (STUDY DURATION: 1 YR), Species: RAT, Strain/Sex: ALBINO/FEMALE, Target Tissue: Type of Lesion: HEMATPOIETIC SYSTEM: LEUKEMIA, Dose [Carcinogen]: 1.5 MG 1/WK FOR 3 WK, Promoter: NONE USED) 5/32 (16%), 2/34 (6%), 63%, not significant; (Carcinogen: 7,12-DIMETHYLBENZ[A]ANTHRACENE, 57-97-6, Dose [Inhibitor]: 0.5% DIET FOR 1 YR STARTING 5 D PRIOR TO CARCINOGEN TREATMENT (STUDY DURATION: 1 YR), Species: RAT, Strain/Sex: ALBINO/FEMALE, Target Tissue: Type of Lesion: MAMMARY GLAND: ADENOCARCINOMA, Dose [Carcinogen]: 1.5 MG 1/WK FOR 3 WK, Promoter: NONE USED) 22/32 (69%), 6/34 (18%), 74%, p<0.0001; (Carcinogen: 7,12-DIMETHYLBENZ[A]ANTHRACENE, 57-97-6, Dose [Inhibitor]: 0.5% DIET FOR 1 YR STARTING 5 D PRIOR TO CARCINOGEN TREATMENT (STUDY DURATION: 1 YR), Species: RAT, Strain/Sex: ALBINO/FEMALE, Target Tissue: Type of Lesion: MAMMARY GLAND: FIBROADENOMA, Dose [Carcinogen]: 1.5 MG 1/WK FOR 3 WK, Promoter: NONE USED) 21/32 (66%), 14/32 (41%), 38%, p 0.025; (Carcinogen: 7,12-DIMETHYLBENZ[A]ANTHRACENE, 57-97-6, Dose [Inhibitor]: 0.5% DIET FOR 1 YR STARTING 5 D PRIOR TO CARCINOGEN TREATMENT (STUDY DURATION: 1 YR), Species: RAT, Strain/Sex: ALBINO/FEMALE, Target Tissue: Type of Lesion: ZYMBAL'S GLAND: CARCINOMA, Dose [Carcinogen]: 1.5 MG 1/WK FOR 3 WK, Promoter: NONE USED) 5/32 (16%), 6/34 (18%), -13%, not significant. Moreover, the “tumour outcome (control, treated, inhibition, significance)” value reads like this: (Carcinogen: DIETHYLNITROSAMINE, 55-18-5, Dose [Inhibitor]: 0, 1.5% IN DIET BEGINNING 1 WK POST CARCINOGEN DOSE (STUDY DURATION: 52 WK), Species: MOUSE, Strain/Sex: C3H/MALE, Target Tissue: Type of Lesion: LIVER: ADENOMA, Dose [Carcinogen]: 150 MG/KG ONCE, Promoter: NONE USED) 14%, 9%, 36%, not calculated; (Carcinogen: DIETHYLNITROSAMINE, 55-18-5, Dose [Inhibitor]: 0, 1.5% IN DIET BEGINNING 1 WK POST CARCINOGEN DOSE (STUDY DURATION: 52 WK), Species: MOUSE, Strain/Sex: C3H/MALE, Target Tissue: Type of Lesion: LIVER: ADENOMA, Dose [Carcinogen]: 150 MG/KG ONCE, Promoter: PHENOBARBITAL, 50-06-6) 16%, 22%, -38%, not calculated; (Carcinogen: DIETHYLNITROSAMINE, 55-18-5, Dose [Inhibitor]: 0, 1.5% IN DIET BEGINNING 1 WK POST CARCINOGEN DOSE (STUDY DURATION: 52 WK), Species: MOUSE, Strain/Sex: C3H/MALE, Target Tissue: Type of Lesion: LIVER: CARCINOMA, Dose [Carcinogen]: 150 MG/KG ONCE, Promoter: NONE USED) 71%, 77%, -8%, not calculated; (Carcinogen: DIETHYLNITROSAMINE, 55-18-5, Dose [Inhibitor]: 0, 1.5% IN DIET BEGINNING 1 WK POST CARCINOGEN DOSE (STUDY DURATION: 52 WK), Species: MOUSE, Strain/Sex: C3H/MALE, Target Tissue: Type of Lesion: LIVER: CARCINOMA, Dose [Carcinogen]: 150 MG/KG ONCE, Promoter: PHENOBARBITAL, 50-06-6) 74%, 33%, 55%, p<0.01; (Carcinogen: DIETHYLNITROSAMINE, 55-18-5, Dose [Inhibitor]: 0, 1.5% IN DIET BEGINNING 1 WK POST CARCINOGEN DOSE (STUDY DURATION: 52 WK), Species: MOUSE, Strain/Sex: C3H/MALE, Target Tissue: Type of Lesion: LUNG: ADENOMA OR ADENOCARCINOMA, Dose [Carcinogen]: 150 MG/KG ONCE, Promoter: NONE USED) 6/14 (43%), 12/22 (55%), -28%, not calculated; (Carcinogen: DIETHYLNITROSAMINE, 55-18-5, Dose [Inhibitor]: 0, 1.5% IN DIET BEGINNING 1 WK POST CARCINOGEN DOSE (STUDY DURATION: 52 WK), Species: MOUSE, Strain/Sex: C3H/MALE, Target Tissue: Type of Lesion: LUNG: ADENOMA OR ADENOCARCINOMA, Dose [Carcinogen]: 150 MG/KG ONCE, Promoter: PHENOBARBITAL, 50-06-6) 7/19 (37%), 0/9 (0%), 100%, not calculated. Besides, the “tumour outcome (control, treated, inhibition, significance)” value reads like this: (Carcinogen: ETHIONINE, 13073-35-3, Dose [Inhibitor]: 1.35 MMOL/100 G DIET DAILY FOR 4.5 MO ADMINISTERED SIMULTANEOUSLY WITH CARCINOGEN FOLLOWED BY NORMAL STOCK DIET FOR REMA, Species: RAT, Strain/Sex: WISTAR/MALE, Target Tissue: Type of Lesion: LIVER: CARCINOMA, Dose [Carcinogen]: 0.25% OF DIET DAILY FOR 8 MO, Promoter: NONE USED) 9/9 (100%), 2/8 (25%), 75%, not calculated; (Carcinogen: ETHIONINE, 13073-35-3, Dose [Inhibitor]: 2 MMOL/100 G DIET DAILY FOR 8 MO ADMINISTERED SIMULTANEOUSLY WITH CARCINOGEN FOLLOWED BY 2 MO ON NORMAL STOCK DIET (STUD, Species: RAT, Strain/Sex: WISTAR/MALE, FEMALE, Target Tissue: Type of Lesion: LIVER: CARCINOMA, Dose [Carcinogen]: 0.25% OF DIET DAILY FOR 8 MO, Promoter: NONE USED) 9/10 (90%), 5/10 (50%), 44%, not calculated; (Carcinogen: ETHIONINE, 13073-35-3, Dose [Inhibitor]: 4 MMOL/100 G DIET DAILY FOR 4.5 MO ADMINISTERED SIMULTANEOUSLY WITH CARCINOGEN FOLLOWED BY NORMAL STOCK DIET FOR REMAIND, Species: RAT, Strain/Sex: WISTAR/MALE, Target Tissue: Type of Lesion: LIVER: CARCINOMA, Dose [Carcinogen]: 0.25% OF DIET DAILY FOR 8 MO, Promoter: NONE USED) 9/9 (100%), 0/10 (0%), 100%, not calculated; (Carcinogen: ETHIONINE, 13073-35-3, Dose [Inhibitor]: 4 MMOL/100 G DIET DAILY FOR 8 MO ADMINISTERED SIMULTANEOUSLY WITH CARCINOGEN FOLLOWED BY 4 MO ON BASAL DIET (STUDY DURAT, Species: RAT, Strain/Sex: WISTAR/MALE, Target Tissue: Type of Lesion: LIVER: CARCINOMA, Dose [Carcinogen]: 0.25% OF DIET DAILY FOR 12 MO, Promoter: NONE USED) 8/8 (100%), 0/9 (0%), 100%, not calculated; (Carcinogen: ETHIONINE, 13073-35-3, Dose [Inhibitor]: 5.4 MMOL/100 G DIET DAILY FOR 4.5 MO ADMINISTERED SIMULTANEOUSLY WITH CARCINOGEN FOLLOWED BY NORMAL STOCK DIET FOR REMAI, Species: RAT, Strain/Sex: WISTAR/MALE, Target Tissue: Type of Lesion: LIVER: CARCINOMA, Dose [Carcinogen]: 0.25% OF DIET DAILY FOR 8 MO, Promoter: NONE USED) 9/9 (100%), 0/10 (0%), 100%, not calculated; (Carcinogen: ETHIONINE, 13073-35-3, Dose [Inhibitor]: 5.4 MMOL/100 G DIET DAILY FOR 8 MO ADMINISTERED SIMULTANEOUSLY WITH CARCINOGEN FOLLOWED BY 4 MO ON BASAL DIET (STUDY DUR, Species: RAT, Strain/Sex: WISTAR/MALE, Target Tissue: Type of Lesion: LIVER: CARCINOMA, Dose [Carcinogen]: 0.25% OF DIET DAILY FOR 12 MO, Promoter: NONE USED) 8/8 (100%), 0/9 (0%), 100%, not calculated. Further, the “tumour outcome (control, treated, inhibition, significance)” value is 9/28 (32%), 5/29 (17%), 47%, not significant (Carcinogen: N-METHYL-N-NITROSOUREA, 684-93-5, Dose [Inhibitor]: 0.5% DIET FOR 1 YR STARTING 5 D PRIOR TO CARCINOGEN TREATMENT (STUDY DURATION: 1 YR), Species: RAT, Strain/Sex: ALBINO/FEMALE, Target Tissue: Type of Lesion: HEMATOPOIETIC SYSTEM: LEUKEMIA, Dose [Carcinogen]: 50 MG/KG 1/WK FOR 2 WK, Promoter: NONE USED); 15/28 (54%), 17/29 (59%), -9%, not significant (Carcinogen: N-METHYL-N-NITROSOUREA, 684-93-5, Dose [Inhibitor]: 0.5% DIET FOR 1 YR STARTING 5 D PRIOR TO CARCINOGEN TREATMENT (STUDY DURATION: 1 YR), Species: RAT, Strain/Sex: ALBINO/FEMALE, Target Tissue: Type of Lesion: KIDNEY: MESENCHYMAL TUMOR, Dose [Carcinogen]: 50 MG/KG 1/WK FOR 2 WK, Promoter: NONE USED); 9/28 (32%), 4/29 (14%), 56%, p 0.05 (Carcinogen: N-METHYL-N-NITROSOUREA, 684-93-5, Dose [Inhibitor]: 0.5% DIET FOR 1 YR STARTING 5 D PRIOR TO CARCINOGEN TREATMENT (STUDY DURATION: 1 YR), Species: RAT, Strain/Sex: ALBINO/FEMALE, Target Tissue: Type of Lesion: MAMMARY GLAND: ADENOCARCINOMA, Dose [Carcinogen]: 50 MG/KG 1/WK FOR 2 WK, Promoter: NONE USED); 5/28 (18%), 6/29 (21%), -17%, not significant (Carcinogen: N-METHYL-N-NITROSOUREA, 684-93-5, Dose [Inhibitor]: 0.5% DIET FOR 1 YR STARTING 5 D PRIOR TO CARCINOGEN TREATMENT (STUDY DURATION: 1 YR), Species: RAT, Strain/Sex: ALBINO/FEMALE, Target Tissue: Type of Lesion: MAMMARY GLAND: FIBROADENOMA, Dose [Carcinogen]: 50 MG/KG 1/WK FOR 2 WK, Promoter: NONE USED).
